The results in this text go back to US11951094B2, “TLR2 modulator compounds, pharmaceutical compositions and uses thereof” (Axial Therapeutics, Inc., priority 2020, dated 2024).

Chain of TLR2 (O60603 21-784): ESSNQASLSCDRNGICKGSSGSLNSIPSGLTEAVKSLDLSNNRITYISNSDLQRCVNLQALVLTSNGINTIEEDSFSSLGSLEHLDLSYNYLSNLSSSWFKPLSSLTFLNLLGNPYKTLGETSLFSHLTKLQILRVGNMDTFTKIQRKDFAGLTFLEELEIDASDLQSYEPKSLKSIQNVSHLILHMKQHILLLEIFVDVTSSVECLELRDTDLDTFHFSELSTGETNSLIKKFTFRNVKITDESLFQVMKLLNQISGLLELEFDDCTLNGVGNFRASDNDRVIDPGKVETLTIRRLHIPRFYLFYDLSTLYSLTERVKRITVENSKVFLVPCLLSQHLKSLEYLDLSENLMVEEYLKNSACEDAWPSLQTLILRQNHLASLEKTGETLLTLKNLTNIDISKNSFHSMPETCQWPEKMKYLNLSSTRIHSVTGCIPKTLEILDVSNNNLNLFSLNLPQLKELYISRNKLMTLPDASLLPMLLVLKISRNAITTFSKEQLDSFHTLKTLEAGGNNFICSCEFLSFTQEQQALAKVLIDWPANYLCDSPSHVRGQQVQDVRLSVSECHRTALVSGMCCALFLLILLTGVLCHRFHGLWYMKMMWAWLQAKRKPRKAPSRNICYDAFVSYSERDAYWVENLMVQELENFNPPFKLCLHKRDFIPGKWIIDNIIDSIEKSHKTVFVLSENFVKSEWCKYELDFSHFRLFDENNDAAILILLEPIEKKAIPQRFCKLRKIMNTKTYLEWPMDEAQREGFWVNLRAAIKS

This test has as its target TLR2 (Homo sapiens, UniProt O60603). In words: TLR2 agonist screening assay, HEK-Blue TLR2 reporter cell line (NF-kB-driven SEAP, absorbance at 600 nm). The format is cell-based. On the set-up: host or cells: HEK-293 (HEK-Blue TLR2 reporter cell line). Conditions: HEK-Blue TLR2 reporter cells, agonist mode; average of all runs (Table 4). An outline of the steps: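 Read-out: SEAP colour change, A600, after overnight agonist exposure. Cells: HEK-293 overexpressing TLR2, NF-kB-SEAP reporter, ~40,000/well, plated 16-24 h prior.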
The compound `CCCCCCCCCCCCCCNC(=O)[C@@H]1CN(S(=O)(=O)c2cccc(C(=O)N3C[C@@H](C(=O)N[C@H]4C[C@@H]4c4ccccc4)[C@H](C(=O)N[C@H]4C[C@@H]4c4ccccc4)C3)c2)CCN1C(C)=O` [Compound 193, (3S,4S)-1-(3-(((S)-4-acetyl-3-(tetradecylcarbamoyl)piperazin-1-yl)sulfonyl)benzoyl)-N3,N4-bis((1S,2R)-2-phenylcyclopropyl)pyrrolidine-3,4-dicarboxamide] came in with a concentration giving a half-maximal response (EC50) of 51 to 350 nM.
As for `CCCCCCCCCCCCCCC(=O)NC1CCN(S(=O)(=O)c2cccc(C(=O)N3C[C@@H](C(=O)N[C@H]4C[C@@H]4c4ccccc4)[C@H](C(=O)N[C@H]4C[C@@H]4c4ccccc4)C3)c2)CC1` [Compound 194, (3S,4S)-1-(3-((4-pentadecanamidopiperidin-1-yl)sulfonyl)benzoyl)-N3,N4-bis((1S,2R)-2-phenylcyclopropyl)pyrrolidine-3,4-dicarboxamide], the EC50 was > 1000 nM.
On to `CCCCCCCCCCCCCCNC(=O)[C@H]1CN(S(=O)(=O)c2ccc(C(=O)N3C[C@@H](C(=O)N[C@H]4C[C@@H]4c4ccccc4)[C@H](C(=O)N[C@H]4C[C@@H]4c4ccccc4)C3)cc2)CCN1C(C)=O` [Compound 195, (3S,4S)-1-(4-(((R)-4-acetyl-3-(tetradecylcarbamoyl)piperazin-1-yl)sulfonyl)benzoyl)-N3,N4-bis((1S,2R)-2-phenylcyclopropyl)pyrrolidine-3,4-dicarboxamide], for which the EC50 was > 1000 nM.
As for `CCCCCCCCCCCCCCNC(=O)[C@@H]1CN(S(=O)(=O)c2ccc(C(=O)N3C[C@@H](C(=O)N[C@H]4C[C@@H]4c4ccccc4)[C@H](C(=O)N[C@H]4C[C@@H]4c4ccccc4)C3)cc2)CCN1C(C)=O` [Compound 196, (3S,4S)-1-(4-(((S)-4-acetyl-3-(tetradecylcarbamoyl)piperazin-1-yl)sulfonyl)benzoyl)-N3,N4-bis((1S,2R)-2-phenylcyclopropyl)pyrrolidine-3,4-dicarboxamide], the half-maximal effective concentration (EC50) was > 1000 nM.
Next, `CCCCCCCCCNC(=O)[C@H](CNC(=O)c1ccc(C(=O)N2C[C@@H](C(=O)N[C@H]3C[C@@H]3c3ccccc3)[C@H](C(=O)N[C@H]3C[C@@H]3c3ccccc3)C2)cc1)NC(=O)CCCCCCCCC` [Compound 207, (3S,4S)-1-(4-(((S)-2-decanamido-3-(nonylamino)-3-oxopropyl)carbamoyl)benzoyl)-N3,N4-bis((1S,2R)-2-phenylcyclopropyl)pyrrolidine-3,4-dicarboxamide]: 0.1 to 50 nM.
As for `CCCCCCCCCCCCCNC(=O)N[C@@H]1CN(C(=O)c2ccc(C(=O)N3C[C@@H](C(=O)N[C@H]4C[C@@H]4c4ccccc4)[C@H](C(=O)N[C@H]4C[C@@H]4c4ccccc4)C3)cc2)C[C@@H]1OC` [Compound 208, (3S,4S)-1-(4-((3S,4R)-3-methoxy-4-(3-tridecylureido)pyrrolidine-1-carbonyl)benzoyl)-N3,N4-bis((1S,2R)-2-phenylcyclopropyl)pyrrolidine-3,4-dicarboxamide], the figure is 0.1 to 50 nM; as for `CCCCCCCCCCCCCCOC(=O)N[C@H]1CN(C(=O)c2ccc(C(=O)N3C[C@@H](C(=O)N[C@H]4C[C@@H]4c4ccccc4)[C@H](C(=O)N[C@H]4C[C@@H]4c4ccccc4)C3)cc2)C[C@@H]1OC` [Compound 218, Tetradecyl ((3S,4S)-1-(4-((3S,4S)-3,4-bis(((1S,2R)-2-phenylcyclopropyl)carbamoyl)pyrrolidine-1-carbonyl)benzoyl)-4-methoxypyrrolidin-3-yl)carbamate], 351 to 1000 nM; as for `O=C1CCCCCCCCCCCCNC(=O)[C@H](CNC(=O)c2ccc(C(=O)N3C[C@@H](C(=O)N[C@H]4C[C@@H]4c4ccccc4)[C@H](C(=O)N[C@H]4C[C@@H]4c4ccccc4)C3)cc2)N1` [Compound 225, (3S,4S)-1-(4-((((S)-3,17-dioxo-1,4-diazacycloheptadecan-2-yl)methyl)carbamoyl)benzoyl)-N3,N4-bis((1S,2R)-2-phenylcyclopropyl)pyrrolidine-3,4-dicarboxamide], 351 to 1000 nM.
Next, `CCCCCCNC(=O)[C@H](CNC(=O)c1ccc(C(=O)N2C[C@@H](C(=O)N[C@H]3C[C@@H]3c3ccccc3)[C@H](C(=O)N[C@H]3C[C@@H]3c3ccccc3)C2)cc1)NC(=O)OCCCCCC` [Compound 226, hexyl ((S)-3-(4-((3S,4S)-3,4-bis(((1S,2R)-2-phenylcyclopropyl)carbamoyl)pyrrolidine-1-carbonyl)benzamido)-1-(hexylamino)-1-oxopropan-2-yl)carbamate]: > 1000 nM.
With `CCCCCCCCCCCCCNC(=O)N[C@H]1CN(c2ncc(-c3ccc(C(=O)N4C[C@@H](C(=O)N[C@H]5C[C@@H]5c5ccccc5)[C@H](C(=O)N[C@H]5C[C@@H]5c5ccccc5)C4)cc3)o2)C[C@@H]1OC` [Compound 234, (3S,4S)-1-(4-(2-((3S,4S)-3-methoxy-4-(3-tridecylureido)pyrrolidin-1-yl)oxazol-5-yl)benzoyl)-N3,N4-bis((1S,2R)-2-phenylcyclopropyl)pyrrolidine-3,4-dicarboxamide], the EC50 was > 1000 nM.
As for `CCCCCCCCCC(=O)N[C@@H](CNC(=O)Nc1ccc(C(=O)N2C[C@@H](C(=O)N[C@H]3C[C@@H]3c3ccccc3)[C@H](C(=O)N[C@H]3C[C@@H]3c3ccccc3)C2)cc1)C(=O)NCCCCCC` [Compound 235, (3S,4S)-1-(4-(3-((S)-2-decanamido-3-(hexylamino)-3-oxopropyl)ureido)benzoyl)-N3,N4-bis((1S,2R)-2-phenylcyclopropyl)pyrrolidine-3,4-dicarboxamide], the figure is > 1000 nM.
Next, `CCCCCCCCCCCCCCC(=O)N[C@H]1CN(C(=O)c2ccc(C(=O)N3C[C@@H](C(=O)N[C@H]4C[C@@H]4c4ccccc4)[C@H](C(=O)N[C@H]4C[C@@H]4c4ccccc4)C3)cc2)C[C@H]1OC` [Compound 236, (3S,4S)-1-(4-((3R,4S)-3-methoxy-4-pentadecanamidopyrrolidine-1-carbonyl)benzoyl)-N3,N4-bis ((1S,2R)-2-phenylcyclopropyl) pyrrolidine-3,4-dicarboxamide]: 0.1 to 50 nM.
Next, `CCCCCCCCCCCCCNC(=O)N[C@H]1CN(c2nnc(-c3ccc(C(=O)N4C[C@@H](C(=O)N[C@H]5C[C@@H]5c5ccccc5)[C@H](C(=O)N[C@H]5C[C@@H]5c5ccccc5)C4)cc3)[nH]2)C[C@@H]1OC` [Compound 237, (3S,4S)-1-(4-(5-((3S,4S)-3-methoxy-4-(3-tridecylureido)pyrrolidin-1-yl)-4H-1,2,4-triazol-3-yl)benzoyl)-N3,N4-bis((1S,2R)-2-phenylcyclopropyl)pyrrolidine-3,4-dicarboxamide]: > 1000 nM.
`CCCCCCCCCCCCCNC(=O)N[C@H]1CN(C(=O)Nc2ccc(C(=O)N3C[C@@H](C(=O)N[C@H]4C[C@@H]4c4ccccc4)[C@H](C(=O)N[C@H]4C[C@@H]4c4ccccc4)C3)cc2)C[C@@H]1OC` [Compound 238, (3S,4S)-1-(4-((3S,4S)-3-methoxy-4-(3-tridecylureido)pyrrolidine-1-carboxamido)benzoyl)-N3,N4-bis((1S,2R)-2-phenylcyclopropyl)pyrrolidine-3,4-dicarboxamide] gave an EC50 of 351 to 1000 nM.
As for `CCCCCCCCCC(=O)N[C@@H](COC(=O)Nc1ccc(C(=O)N2C[C@@H](C(=O)N[C@H]3C[C@@H]3c3ccccc3)[C@H](C(=O)N[C@H]3C[C@@H]3c3ccccc3)C2)cc1)C(=O)NCCCCCC` [Compound 239, (S)-2-decanamido-3-(hexylamino)-3-oxopropyl (4-((3S,4S)-3,4-bis(((1S,2R)-2-phenylcyclopropyl)carbamoyl)pyrrolidine-1-carbonyl)phenyl)carbamate], the figure is 0.1 to 50 nM.
Next, `CCCCCCCCCC(=O)N[C@@H](CN1C(=O)c2ccc(C(=O)N3C[C@@H](C(=O)N[C@H]4C[C@@H]4c4ccccc4)[C@H](C(=O)N[C@H]4C[C@@H]4c4ccccc4)C3)cc2C1=O)C(=O)NCCCCCC` [Compound 240, (3S,4S)-1-(2-((S)-2-decanamido-3-(hexylamino)-3-oxopropyl)-1,3-dioxoisoindoline-5-carbonyl)-N3,N4-bis((1S,2R)-2-phenylcyclopropyl)pyrrolidine-3,4-dicarboxamide]: > 1000 nM; `CCCCCCCCCC(=O)N[C@@H](CN1Cc2ccc(C(=O)N3C[C@@H](C(=O)N[C@H]4C[C@@H]4c4ccccc4)[C@H](C(=O)N[C@H]4C[C@@H]4c4ccccc4)C3)cc2C1=O)C(=O)NCCCCCC` [Compound 241, (3S,4S)-1-(2-((S)-2-decanamido-3-(hexylamino)-3-oxopropyl)-3-oxoisoindoline-5-carbonyl)-N3,N4-bis((1S,2R)-2-phenylcyclopropyl)pyrrolidine-3,4-dicarboxamide]: 51 to 350 nM; `CCCCCCCCCC(=O)N[C@@H](CN1Cc2cc(C(=O)N3C[C@@H](C(=O)N[C@H]4C[C@@H]4c4ccccc4)[C@H](C(=O)N[C@H]4C[C@@H]4c4ccccc4)C3)ccc2C1=O)C(=O)NCCCCCC` [Compound 242, (3S,4S)-1-(2-((S)-2-decanamido-3-(hexylamino)-3-oxopropyl)-1-oxoisoindoline-5-carbonyl)-N3,N4-bis((1S,2R)-2-phenylcyclopropyl)pyrrolidine-3,4-dicarboxamide]: 51 to 350 nM.
Next, `CCCCCCCCCC(=O)N[C@@H](Cc1nnc(-c2ccc(C(=O)N3C[C@@H](C(=O)N[C@H]4C[C@@H]4c4ccccc4)[C@H](C(=O)N[C@H]4C[C@@H]4c4ccccc4)C3)cc2)s1)C(=O)NCCCCCC` [Compound 243, (3S,4S)-1-(4-(5-((S)-2-decanamido-3-(hexylamino)-3-oxopropyl)-1,3,4-thiadiazol-2-yl)benzoyl)-N3,N4-bis((1S,2R)-2-phenylcyclopropyl)pyrrolidine-3,4-dicarboxamide]: 0.1 to 50 nM; `CCCCCCCCCCCCCNC(=O)N[C@H]1CN(c2ncc(-c3ccc(C(=O)N4C[C@@H](C(=O)N[C@H]5C[C@@H]5c5ccccc5)[C@H](C(=O)N[C@H]5C[C@@H]5c5ccccc5)C4)cc3)s2)C[C@@H]1OC` [Compound 244, (3S,4S)-1-(4-(2-((3S,4S)-3-methoxy-4-(3-tridecylureido)pyrrolidin-1-yl)thiazol-5-yl)benzoyl)-N3,N4-bis((1S,2R)-2-phenylcyclopropyl)pyrrolidine-3,4-dicarboxamide]: 351 to 1000 nM.
